Measured values reported in patent US20100247931A1, “TREATING SURFACES TO ENHANCE BIO-COMPATIBILITY” (priority 2001, published 2010).
Where “and” joins values, the source holds several entries; their conditions need not be identical. Equal values may be shown once. Where a name gives a salt, the structure may show the parent alone. One block for each compound: values may come before it.

Experiments:
Type in all cases: physicochemical
[1] = Colchicine release from polymer coating into phosphate buffered saline (UV/Vis absorbance at 350 nm)
From the text: The stent was placed in a tube containing 4 mls of Phosphate Buffered Saline solution (prepared from tablets supplied by Sigma-Aldrich Chemical Co by dissolving 1 tablet in 200 mls of deionised water) and agitated by rolling. The saline solution was sampled at intervals and its colchicine content determined by monitoring its absorbance at 350 nm using UV/Vis Spectrometry. A calibration plot for various concentrations of Colchicine (4 to 99 micrograms) in solution against the solution's absorbance at 350 nm was constructed to convert sample's release absorbance into drug release values in micrograms per stent. The graph of Colchicine released against release time is plotted in FIG. 3.
1. Stainless steel strips approx 6-8 mm in width were cleaned in IPA with ultrasound for 15 mins, followed by drying at 130° C. for 30 mins 2. The plate was functionalised as in Example 2. 3. The amino group on the functionalised steel was then reacted with the ispcyano group of 3-(triethoxysilyl)isocyanate to form a urea linkage, yielding triethoxysilyl groups on the surface. This was performed by adding the stainless steel plate to a solution of 3-(triethoxysilyl) isocyanate (9 ml) in anhydrous toluene (219 ml). […] The colchicine was released by placing the strips in 4 mls of phosphate buffered saline (PBS) solution, placing on a spiromix and measuring the absorbance at 350 nm over a period of 100 hours 15. […]

[2] = Eosin Y coupling to amine groups of TMSPEA functionalised surface and release (absorbance at 517 nm)
Experimental: Once rinsing had been completed, the sample was placed in a 50 ml sample tube and 4 mls of 0.1 M NaOH was pipetted into it, the sample tube was placed on the Spiramix and it was rolled for—5 minutes. 20 mls of deionised water was then pipetted into the solution and the absorbance of the resulting solution was recorded at 517 nm using a spectrophotometer. The absorbance value was then converted into an amount of eosin Y attached to the sample by using a calibration graph of absorbance readings for known amounts of eosin Y sodium salt. The absorbance reading for the release solution was 0.83 at 517 nm corresponding to 205 μg of eosinY.
All six samples were placed in sample tubes (100*16 mm R. B. tubes clarified polypropylene, Jencons PLC) and rolled on the Spiramix (Denley Spiramix 5) in approximately 4-6 mls of a 0.4% aqueous solution of eosin Y sodium salt (Sigma Aldrich chemical co) for approximately 1 hour.
Once rinsing had been completed, two samples from the ethanol rinsed and unrinse, d sets were placed in 50 ml sample tubes and 4 mls of 0.1 M NaOH was pipetted into each. The sample tubes were placed on the Spiramix and rolled for—5 minutes. 20 mls of deionised water was then pipetted into each sample and the absorbance of the resulting solution was recorded at 517 nm using a Jenway 6305 W/V is spectrophotometer. The values recorded were then converted into amounts of eosin Y attached to the samples by using a calibration graph of absorbance readings for known amounts of eosin Y sodium salt.
After drying for 2 hours at 50° C. the sample was stained with Eosin Y solution, visually examined and then released as detailed in the Eosin Y Coupling section of Example 6.

[3] = Mitoxantrone coupling and release from coated device (absorbance of release solution at 660 nm)
Experimental: A 0.01% solution of mitoxantrone (Sigma Aldrich Chemical Co) was made up in deionised water. The samples are each immersed in 4 mls of the solution and left rolling on a Spiramix (Denley Spiramix 5) for—17 hours (Samples placed in 100*16 mm R. B. tube clarified polypropylene supplied by Jencons PLC.). After this time they were rinsed in deionised water until there was no evidence of the mitoxantrone being removed in the water. 4 mls of phosphate buffered saline solution (PBS) was then pipetted into a clean sample tube and the sample added. The samples were left in this solution for 1 hour on the Spiramix, after which absorbances were recorded by spectrophotometer at 660 nm. The solutions were then transferred back into the appropriate sample tube and 5 drops of 1M hydrochloric acid added from a dropping pipette. The samples were left for 10 minutes rolling on the Spiramix, after which an absorbance reading was recorded. Further readings were obtained after 1 hour or more to give a value for complete release of mitoxantrone. The absorbances recorded for the release solutions at 660 nm gave an indication of the amount of mitoxantrone attached to the carboxymethylcellulose coating on each sample. By use of a calibration curve plotting known concentrations of mitoxantrone solutions against the absorbance of the solution at 660 nm, the mitoxantrone concentration of the release solution was determined and from this the amount of mitoxantrone attached to each device. An absorbance of 0.09 at 660 nm was obtained for the 1 hour release in phosphate buffered saline solution, and an absorbance of 0.17 for the complete release of Mitoxantrone. This equates to approximately 31 micrograms of mitoxantrone attached to the stent.

[4] = as above; remark: listed apart in the source
[5] = Example 2: stent coupled with poly(acrylic acid) partial sodium salt, Mw 2000
[6] = Example 9: heat exchange tubes coupled with polyacrylic acid sodium salt, Mw ca. 30,000

Structure (SMILES): COc1cc2c(c(OC)c1OC)-c1ccc(OC)c(=O)cc1[C@@H](NC(C)=O)CC2 [colchicine]
Release of drug into phosphate buffered saline solution ([1]; Coating of poly(vinyl butyral-co-vinyl alcohol-co-vinyl acetate) and colchicine without poly(ethylene glycol)): does not release the drug into phosphate buffered saline solution
Total amount of drug released after sonication in 2-propanol ([1]; Example 14: strip coated with poly(vinyl butyral-co-vinyl alcohol-co-vinyl acetate) + poly(ethylene glycol) + colchicine, after 100 hours in PBS): 320 u. g

Eosin Y attached to the sample ([2]; Example 6: TMSPEA functionalised tube (toluene, 30 minutes), calibration graph): 205 µg
Absorbance of release solution at 517 nm ([2]; Example 6: TMSPEA functionalised tube (toluene, 30 minutes), released in 0.1 M NaOH): 0.83
Absorbance of release solution at 517 nm ([2]; Example 15: tube functionalised with TMSPEA in tetrahydrofuran instead of toluene): 0.19
Structure (SMILES): O=C1OC2(c3ccccc31)c1cc(Br)c(O)c(Br)c1Oc1c2cc(Br)c(O)c1Br [eosin Y, eosin Y sodium salt]

Structure (SMILES): O=C1c2c(O)ccc(O)c2C(=O)c2c(NCCNCCO)ccc(NCCNCCO)c21 [mitoxantrone]
Absorbance at 660 nm, complete release of mitoxantrone ([3]; Example 1: CMC coupled stent, PBS + 1M HCl): 0.17
Mitoxantrone attached to the stent ([3]; Example 1: CMC coupled stent, from calibration curve): approximately 31 micrograms
Absorbance at 660 nm, 1 hour release in phosphate buffered saline solution ([3]; Example 1: stainless steel stent, TMSPEA functionalised, carboxymethylcellulose coupled): 0.09
Absorbance at 660 nm, released 10 minutes in PBS with 5 drops 1 M HCl [4, 5]: 0.037
Mitoxantrone attached to the stent [4, 5]: 7 micrograms
Mitoxantrone attached to the heparin coated devices (complete release values) ([4]; Example 3: heparin coupled stainless steel heat exchange tubes): 31 micrograms and 36 micrograms
Mitoxantrone attachment of released stent ([4]; Example 7: commercially available stent, heparin/EDC Reaction Solution 1 of Example 6): 9 micrograms
Absorbance at 660 nm, complete release of mitoxantrone [4, 6]: 0.33
Mitoxantrone corresponding to complete release absorbance [4, 6]: 60 micrograms
